{"source": "patent US12673918B2", "about": "“Small molecule RPN13 inhibitors with antitumor properties” (The Johns Hopkins University, priority 2019, dated 2026)", "key": {"[1]": {"test_system": "proteasome (4UbFL reporter)", "assay": "4UbFL reporter, ES2 cells stably expressing 4UbFL", "type": "cell-based, human", "conditions": "ES2 stably expressing 4UbFL, 4 h", "from_the_text": "FIG. 14B illustrates fold increase in bioluminiscence of ES2 cells stably expressing 4UbFL at 4 hrs post-treatment of compounds, as measured by luminometer.\nNext examined was the effect of compounds on proteasome function using a DNA construct that expresses a reporter gene comprising firefly luciferase fused to four molecules of ubiquitin (4UbFL) at its amino terminus (41). The 4UbFL is rapidly degraded by active proteasomes, resulting in a low level of enzymic activity and bioluminescence. Upon proteasome inhibition, increased 4UbFL activity can be measured by luminescence assay using luciferin as a substrate as the protein is stabilized."}, "HS578T": {"test_system": "HS578T", "conditions": "human"}, "ES2 cells": {"test_system": "ES2 cells", "assay": "Seahorse mitochondrial stress test, ES2 cells", "type": "cell-based, human", "experimental": "During the mitochondrial stress test, baseline OCR measurements were followed by the addition of the compound oligomycin to measure ATP-linked respiration. Upon addition of the uncoupler FCCP, maximal respiration is measured. […] At the end of the assay, a mix of rotenone and antimycin A was injected to provide a measure of non-mitochondrial respiration. […] To determine the impact of RA413S on glycolysis, ES2 cells were incubated in medium without glucose or pyruvate and the baseline ECAR was measured. Addition of glucose allows the measurement of the glycolysis rate. This was followed by the injection of oligomycin which inhibits mitochondrial ATP production and shifts the energy production to glycolysis. The consequent rise in ECAR measures the cellular maximum glycolytic capacity.\nSeahorse Assay: For quantification of oxygen consumption rate, ES2 cells were seeded at 20,000 cells per well in Seahorse XF96 Analyzer plates in regular media and incubated at 37° C. with 5% CO2 overnight. […] The plate was then loaded into the Seahorse machine and readings of oxygen and pH levels were taken before and after injections of 3 μM oligomycin, 4 μM FCCP, 2 μM antimycin, and 2 μM rotenone. Oxygen consumption rate and extracellular acidification rate were analyzed using Wave 2.4 software."}, "OV2008": {"test_system": "OV2008", "assay": "MTT cytotoxicity assay, OV2008", "conditions": "read-out: cytotoxicity IC50 OV2008", "experimental": "(§2) Cell lines and cytotoxicity assays: All cell lines were obtained from the American Type Culture Collection (ATCC) and cultured in the specified medium supplemented with 10% fetal bovine serum, 100 IU/mL penicillin, and 100 μg/mL streptomycin at 37° C. in a humidified 5% CO2/95% air incubator. […] To assess drug cytotoxicity, cells were seeded at 2,500 cells/well (10,000 cells/well for MM lines) in 100 μL medium in 96-well plate and after 24 treated with compounds for 72 h, incubated according to the manufacturer's protocol with the Thiazolyl Blue Tetrazolium Bromide (Sigma, M2128) and A570 measured using a Benchmark Plus microplate spectrophotometer (BIO-RAD). IC50 data was analyzed by Graphpad Prism software. In the chirality studies the cells were treated with compounds for 48 h, and the cells were incubated and measured via the preceeding protocols."}, "OVCAR3": {"test_system": "OVCAR3", "conditions": "human"}, "ID8-VegfDefb29 tumor": {"test_system": "ID8-VegfDefb29 tumor", "assay": "in vivo", "type": "in vivo, C57BL/6 mice", "description": "To assess therapeutic efficacy the ID8-VegfDefb29 cell line was utilized in a syngeneic mouse model of ovarian cancer expressing luciferase (62). ID8 was first derived from spontaneous malignant transformation of C57BL/6 mouse ovarian surface epithelial cells in vitro (69). ID8-Vegf Defb29 cells represent a more aggressive variant of ovarian cancer in which VEGF provides vascular growth which is augmented by the presence of DEFB29 (62). C57BL/6 mice were injected i.p. with ID8-VegfDefb29 cells stably expressing firefly luciferase (0.5×10^6 cells) in PBS (100 μL). After 72 hrs, mice were imaged for their basal luminescence levels using an IVIS200 imager. Mice with visible luminescence were randomized into equal groups including vehicle (n=8), RA414 (3 mg/Kg, n=8), RA414 (10 mg/Kg, n=8) and treated every three days for up to 3 weeks. Mice were imaged every week to measure bioluminescence expressed by tumor after administration of luciferin. […] On day 24 two mice were sacrificed after collection of ascites, and the remainder required euthanasia on day 31 (FIGS. 17A and 17B). Administration of RA414 at 10 mg/kg (3 doses delivered every three days) regressed the tumor completely in 50% of the mice with less than 10% weight loss. […] This is consistent with proteasome inhibition within the ascites cells by the […] RA414 treatment regimen.\n(§1) Tumor Studies: Female C57BL6 or Nude mice were inoculated with 10^6 ES2-Luciferase cells i.p. in 100 uL PBC, or ID8-VegfDefb29 syngeneic mouse model of ovarian cancer expressing luciferase (62) i.p. in 100 μL PBS. At day 3, mice were imaged for basal level luminescence activity with a Xenogen IVIS 200 after injection i.p. with luciferin (0.3 mg in 100 water). Mice were randomized into two groups (n=8) and treated i.p. with compounds or vehicle (25% (w/v) β-Hydroxypropylcyclodextrin in water), and imaged again on days 7 and 14. RA375 was administered i.p. at 10 mg/Kg."}, "RPE1-ATMKO": {"test_system": "RPE1-ATMKO", "assay": "MTT cytotoxicity assay, RPE1-ATMKO", "conditions": "read-out: cytotoxicity IC50 RPE1-ATMKO", "experimental": "as §2"}, "ES2-luc xenograft": {"test_system": "ES2-luc xenograft", "assay": "ES2-luc intraperitoneal xenograft in nude mice", "type": "in vivo", "conditions": "10 mg/Kg every 3 days, total 12 doses", "description": "ES2 is a human cell line derived from a high grade ovarian clear cell carcinoma (42). The efficacy of RA375 against the ES2 xenograft model expressing luciferase (ES2-luc) was tested. Nude female mice were inoculated with ES2-luc cells into the peritoneal cavity. After 3 days the mice were imaged for their basal luminescence activity and randomized into two groups (n=8). […] Mice were imaged after the first and second week of treatment for their luciferase activity to assess tumor burden.\nBriefly, female nude mice were injected interperitoneally (i.p.) with ES2-luc cells (1×10^6) in 100 μL PBS and the basal luminescence was measured after three days using IVIS 200 imaging after injecting luciferin. […] Over the treatment period mice were imaged every week for bioluminescence to monitor tumor growth.\nas §1"}, "SSC90": {"test_system": "SSC90", "conditions": "human"}, "[2]": {"assay": "MTT cytotoxicity assay, RPE1", "conditions": "human", "experimental": "as §2"}, "ID8 (murine)": {"test_system": "ID8 (murine)", "assay": "MTT cytotoxicity assay, ID8", "type": "cell-based", "conditions": "Mus musculus, 48 h, read-out: IC50 ID8 (murine)"}, "VU93": {"test_system": "VU93", "assay": "MTT cytotoxicity assay, VU93", "conditions": "read-out: cytotoxicity IC50 VU93, Tables 3A/4B/4C"}, "MCF7": {"test_system": "MCF7", "assay": "MTT cytotoxicity assay, MCF7", "conditions": "read-out: cytotoxicity IC50 MCF7, Tables 3A/4B/4C"}, "RPN13": {"target": "RPN13 (Homo sapiens, UniProt Q16186)", "sequence (Q16186 whole entry)": "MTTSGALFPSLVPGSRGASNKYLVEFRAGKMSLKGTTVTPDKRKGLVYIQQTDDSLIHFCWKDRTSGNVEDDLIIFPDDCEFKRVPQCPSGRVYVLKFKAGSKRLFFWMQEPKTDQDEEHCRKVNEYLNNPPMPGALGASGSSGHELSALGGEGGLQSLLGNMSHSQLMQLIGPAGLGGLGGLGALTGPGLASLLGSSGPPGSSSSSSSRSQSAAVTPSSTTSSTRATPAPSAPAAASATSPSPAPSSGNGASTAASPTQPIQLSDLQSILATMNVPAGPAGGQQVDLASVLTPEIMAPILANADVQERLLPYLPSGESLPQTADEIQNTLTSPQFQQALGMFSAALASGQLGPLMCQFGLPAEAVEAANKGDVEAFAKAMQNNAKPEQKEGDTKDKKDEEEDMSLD", "assay": "RA183B competition / direct biotin labelling of RPN13 in cell lysate", "type": "binding", "conditions": "SKOV3 cell lysate pre-treated with compound, labelled with RA183B", "description": "It has been shown preciously that RA183 adducts Cysteine 88 of RPN13 (13). […] Samples were subjected to SDS-PAGE and transferred to a PVDF membrane. The membrane was probed with HRP-Streptavidin antibody, and the blot developed using chemiluminescence.\nA direct labelling assay in cell lysate of ES2, a human ovarian cancer-derived cell line, using RA413B and RA183B was performed.\nBiotin labeling Assay: Clarified cell lysate in MPER buffer was pretreated with streptavidin magna beads for 45 min at 4° C. to deplete non-specific biotinylated proteins in the cell lysate. The beads were separated and 40 μL of the pre-cleared cell lysate was incubated with compounds (20 μM) for 45 min at 4° C., and then treated with RA183B, RA190B, or RA413SB (10 μM) for 45 min at 4° C. Next, the samples were mixed with Laemmli sample buffer (BioRad) and boiled for 5 min. […] (24 V). The membrane was blocked with 5% BSA in PBST for 1 hr at RT and washed for 20 minutes (3× with PBST). Then the membrane was probed with HRP-streptavidin (1:10,000 in PBST) for 1 hr at RT, washed for 30 min (3× with PBST), and developed using HyGLO chemiluminescent detection reagent (Denville) for biotin detection."}, "[3]": {"conditions": "3 mg/Kg, 9 doses delivered every three days"}}, "note": "pIC50: −log10 of the molar value."}
{"smiles": "C[C@H]1/C(=C\\c2ccc([N+](=O)[O-])cc2)C(=O)/C(=C/c2ccc([N+](=O)[O-])cc2)CN1C(=O)[C@@H](N)Cc1ccccc1", "values": [{"measurement": "4UbFL bioluminescence", "setting": "[1]", "value": "increased bioluminescence in a dose dependent manner"}, {"measurement": "pIC50", "setting": "HS578T", "value": 7.40}, {"measurement": "decrease of ATP production", "setting": "ES2 cells; ES2, 12 hr, 100 nM", "value": "~4", "unit": "fold"}, {"measurement": "maximal respiration", "setting": "ES2 cells; ES2, relative to vehicle or RA414-treated groups", "value": "significantly reduced"}, {"measurement": "pIC50", "setting": "OV2008", "value": 7.40}, {"measurement": "pIC50", "setting": "OVCAR3", "value": 7.16}, {"measurement": "tumor burden compared to vehicle", "setting": "ID8-VegfDefb29 tumor; 15 mg/Kg every 3 days, total 5 doses, day 17, p<0.0001", "value": "significant decrease in tumor burden"}, {"measurement": "pIC50", "setting": "RPE1-ATMKO", "value": 7.62}, {"measurement": "survival", "setting": "ES2-luc xenograft", "value": "significantly increased survival"}, {"measurement": "tumor burden (bioluminescence)", "setting": "ES2-luc xenograft", "value": "significantly reduced tumor burden"}, {"measurement": "pIC50", "setting": "SSC90", "value": 6.90}]}
{"smiles": "CC(C)C[C@H](NC(=O)[C@H](Cc1ccccc1)NC(=O)c1cnccn1)B(O)O", "note": "[Bortezomib, bortezomib, reference compound]", "values": [{"measurement": "pIC50", "setting": "[2]; RPE1 cells", "value": 8.46}]}
{"smiles": "N[C@@H](Cc1ccccc1)C(=O)N1C/C(=C\\c2ccc([N+](=O)[O-])cc2)C(=O)/C(=C/c2ccc([N+](=O)[O-])cc2)C1", "note": "[RA183, reference compound]", "values": [{"measurement": "pIC50", "setting": "ID8 (murine)", "value": 6.70}, {"measurement": "pIC50", "setting": "OV2008", "value": 7.10}]}
{"smiles": "N[C@@H](Cc1ccccc1)C(=O)N1C/C(=C\\c2ccc(Cl)c(Cl)c2)C(=O)/C(=C/c2ccc(Cl)c(Cl)c2)C1", "note": "[RA190, reference compound]", "values": [{"measurement": "pIC50", "setting": "VU93", "value": 6.20}, {"measurement": "pIC50", "setting": "MCF7", "value": 6.12}]}
{"smiles": "O=C(CCl)N[C@@H](Cc1ccccc1)C(=O)N1C/C(=C\\c2ccc([N+](=O)[O-])cc2)C(=O)/C(=C/c2ccc([N+](=O)[O-])cc2)C1", "note": "[RA375]", "values": [{"measurement": "pIC50", "setting": "ID8 (murine)", "value": 7.36}]}
{"smiles": "CC1/C(=C\\c2ccc([N+](=O)[O-])cc2)C(=O)/C(=C/c2ccc([N+](=O)[O-])cc2)CN1C(=O)[C@H](Cc1ccccc1)NC(=O)CCl", "note": "(stereo partly drawn) [RA414]", "values": [{"measurement": "4UbFL bioluminescence", "setting": "[1]", "value": "increased bioluminescence in a dose dependent manner"}, {"measurement": "tolerability", "setting": "ID8-VegfDefb29 tumor; [3]", "value": "well tolerated"}, {"measurement": "tumor growth", "setting": "ID8-VegfDefb29 tumor; [3]", "value": "inhibited tumor growth"}, {"measurement": "mice with tumor regressed completely", "setting": "ID8-VegfDefb29 tumor; 10 mg/kg, 3 doses delivered every three days", "value": 50, "unit": "%"}, {"measurement": "mice that did not tolerate the dose (>10% weight loss) or died", "setting": "ID8-VegfDefb29 tumor; 10 mg/kg, 3 doses delivered every three days, tumor-bearing mice", "value": 50, "unit": "%"}, {"measurement": "competition with RA183B binding to RPN13", "setting": "RPN13", "value": "inhibited by pre-incubation with RA414"}, {"measurement": "pIC50", "setting": "RPE1-ATMKO", "value": "> 7.40"}, {"measurement": "pIC50", "setting": "VU93", "value": 7.40}, {"measurement": "pIC50", "setting": "[2]", "value": "> 7.40"}, {"measurement": "pIC50", "setting": "MCF7", "value": 7.12}]}
